The text below walks through data of paper PMC4116331 (Journal of molecular biology, 2014).

Like-named read-outs stand apart in the source and are kept apart here.

The target of assay [1] is RT-RNase H. As to conditions: read-out: IC50, RT-RNase H, cited from earlier work.
Assay [2] concerns the target RT DNA polymerase activity (Human immunodeficiency virus type 1 group M subtype B, UniProt P04585). In words: RT RNA-dependent DNA polymerase activity. It is filed as biochemical, HIV-1.
Assay [3] concerns RT-RNase H. Description: RT-RNase H inhibition of other RNHIs. It is filed as biochemical, HIV-1.
Where [4] appears, read: read-out: In vitro IC50 RT DNA pol, pH 7.4, 1 mM Mg2+.

As to manicol, the IC50 at RT-RNase H [1] is 600 nM.

For the compound `O=C(O)Cc1cc(=O)oc2c(O)c(O)ccc12` [Compound F3284-8495, (7,8-dihydroxy-2-oxo-2H-chromen-4-yl)acetic acid], in assay [2], the IC50 is greater than 10000 nM. Moreover, the “Inhibition of RT DNA polymerase activity” value in assay [2] (at 10 µM, the highest concentration tested) is reported as “no detectable inhibition”.

For `CC(C)c1ccc(O)c(=O)c(O)c1` [β-Thujaplicinol, β-thujaplicinol], the “Fold greater activity than F3284-8495 against the RNase H of full-length RT” value with RT-RNase H [3] is listed as “greater than 20 fold”. The IC50 on RT-RNase H [1] (31) was 210 nM.

As for `O=c1cc(CN2CCN(c3cccc(Cl)c3)CC2)c2ccc(O)c(O)c2o1` [Compound F3385-2590], in assay [2] (setting [4]), the IC50 worked out at 2500 nM.

Consider `O=c1cc(CN2CCN(C(c3ccccc3)c3ccccc3)CC2)c2ccc(O)c(O)c2o1` [Compound F3385-2581], for which the IC50 in assay [2] (setting [4]) amounted to 2200 nM.

Turning to `COc1ccc(N2CCN(Cc3cc(=O)oc4c(O)c(O)ccc34)CC2)cc1.Cl.Cl` [Compound F3385-2588], the “Inhibition of the DNA polymerase activity of RT (in words)” value in assay [2] is reported as “did not inhibit”. Also, the IC50 in assay [2] (setting [4]) is greater than 10000 nM.

In general, IC50 refers to the concentration that gives 50% inhibition.
